pEC50: −log10 of the molar value.
Each compound was assayed against T1, human TREM2 (Homo sapiens, UniProt Q9NZC2) (assay: TREM2 agonist potency by cellular Syk phosphorylation (AlphaLisa) in HEK293T-hTREM2 cells). Settings: Table D-2; HEK293 cells expressing human TREM2 and DAP12; pSyk AlphaLisa.
T1 construct: expressed in transfected cells; host or cells: HEK293T
Format: cell-based
Procedure: In vitro Measurement of Triggering Receptor Expressed on Myeloid Cells 2 activity using cellular phosphorylation of Spleen Tyrosine Kinase (“Syk”) Assays
Measurement of TREM2 agonist potency was done using a HEK cell line expressing human TREM2 and DAP12 (HEK293T-hTREM2 cells). Binding of small molecules to, and activation of, TREM2 increases the phosphorylation of Syk. The resultant levels of Syk phosphorylation are measured using a commercial AlphaLisa reagent kit. To perform the assay, HEK-hTREM2 cells were plated at 14,000 cells per well in a 384 well plate, in 25 µL of complete growth media and incubated at 37° C., 5% CO2 for 20-24 hours.
Prior to the assay, test compounds were diluted in the 384 well plates in assay buffer and allowed to equilibrate for 30 minutes. Growth media was removed from cell plates by inversion on blotting paper, and 25 μL of test articles in assay buffer was added to cells. Cells were incubated for 45 minutes at room temperature. After 45 minutes, assay buffer was removed and 10 μL of lysis buffer was added. Plates were shaken for 20 minutes at 350 RPM at room temperature. After complete lysis, AlphaLisa reagents were added to the lysate, and fluorescence intensity was measured using a Perkin Elmer Envision plate reader. Intensities were used to generate a standard curve, and % activation was calculated. Curve fitting was performed using Prism v9 software, log(agonist) vs response—variable slope (four parameters), and EC50s were calculated from the curve fit.
The results presented in Table D have been generated with the in vitro assay described above. This assay may be used to test any of the compounds described herein to assess and characterize a compound's ability to act as an agonist of TREM2.

T1 sequence (Q9NZC2 19-230): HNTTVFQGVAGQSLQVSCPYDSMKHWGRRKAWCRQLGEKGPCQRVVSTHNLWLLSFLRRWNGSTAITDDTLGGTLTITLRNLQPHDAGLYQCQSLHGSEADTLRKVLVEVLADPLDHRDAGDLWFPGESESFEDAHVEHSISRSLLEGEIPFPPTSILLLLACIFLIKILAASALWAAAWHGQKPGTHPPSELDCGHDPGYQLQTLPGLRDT
T1 sequence (O43914 22-113 partner): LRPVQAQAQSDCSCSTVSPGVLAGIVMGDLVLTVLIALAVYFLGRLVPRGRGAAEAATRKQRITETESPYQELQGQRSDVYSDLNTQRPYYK

pEC50, ≥ 7.30:
CN(C)c1nc2nc(N3CCC(F)(F)C(c4cnn(C5CC5)c4)C3)nc(-c3ccc(F)cc3F)c2s1 (stereo not shown) [Compound I-245, 5-(3-(1-cyclopropyl-1H-pyrazol-4-yl)-4,4-difluoropiperidin-1-yl)-7-(2,4-difluorophenyl)-N,N-dimethylthiazolo[4,5-d]pyrimidin-2-amine]
C[C@@H]1CN(c2nc(-c3ccc(C(F)(F)F)cc3F)c3c(n2)nc(N(C)C)n3C)C[C@H](c2cnn(C3CC3)c2)O1 [Compound I-283, 2-((2S,6R)-2-(1-cyclopropyl-1H-pyrazol-4-yl)-6-methylmorpholino)-6-(2-fluoro-4-(trifluoromethyl)phenyl)-N,N,7-trimethyl-7H-purin-8-amine]
C[C@@H]1CN(c2nc(-c3ccc(C(F)(F)F)cc3F)c3sc(N(C)C)nc3n2)C[C@H](c2cnn(C3CC3)c2)O1 [Compound I-258, 5-[(2S,6R)-2-(1-cyclopropylpyrazol-4-yl)-6-methyl-morpholin-4-yl]-7-[2-fluoro-4-(trifluoromethyl)phenyl]-N,N-dimethyl-thiazolo[4,5-d]pyrimidin-2-amine]
C[C@@H]1CN(c2nc(-c3ccc(F)cc3F)c3c(n2)nc(N(C)C)n3C)C[C@H](c2cnn(C3CC3)c2)O1 [Compound I-144]
C[C@@H]1CN(c2nc(-c3c(F)cc(F)cc3F)c3sc(N(C)C)nc3n2)C[C@H](c2cnn(C3CC3)c2)O1 [Compound I-240, 5-[(2S,6R)-2-(1-cyclopropylpyrazol-4-yl)-6-methyl-morpholin-4-yl]-N,N-dimethyl-7-(2,4,6-trifluorophenyl)thiazolo[4,5-d]pyrimidin-2-amine]
Fc1cc(C(F)(F)F)ccc1-c1nc([C@H]2CCO[C@@H](c3cnn(C4CC4)c3)C2)nc2nc(C3CC3)sc12 (single isomer, unassigned) [Compound I-279]
Fc1cc(C(F)(F)F)ccc1-c1nc([C@H]2CCO[C@@H](c3cnn(C4CC4)c3)C2)nc2nc(N3CCC3)sc12 (single isomer, unassigned) [Compound I-249]

pEC50, 6.30 to 7.30:
Cc1cc([C@H]2C[C@@H](c3nc(-c4ccc(F)cc4F)c4sc(N(C)C)nc4n3)CCO2)ccn1 [Compound I-268, 7-(2,4-difluorophenyl)-N,N-dimethyl-5-[(2R,4S)-2-(2-methyl-4-pyridyl)tetrahydropyran-4-yl]thiazolo[4,5-d]pyrimidin-2-amine]
Cc1cc(C2CCCN(c3nc(-c4ccc(C(F)(F)F)cc4F)c4sc(N(C)C)nc4n3)C2)ccn1 (racemic) [Compound I-196, 7-(2-fluoro-4-(trifluoromethyl)phenyl)-N,N-dimethyl-5-(3-(2-methylpyridin-4-yl)piperidin-1-yl)thiazolo[4,5-d]pyrimidin-2-amine]
Cc1cc([C@H]2C[C@H](c3nc(-c4ccc(F)cc4F)c4sc(N(C)C)nc4n3)CCO2)ccn1 [Compound I-269, 7-(2,4-difluorophenyl)-N,N-dimethyl-5-[(2R,4R)-2-(2-methyl-4-pyridyl)tetrahydropyran-4-yl]thiazolo[4,5-d]pyrimidin-2-amine]
CN(c1nc2nc([C@H]3CCO[C@@H](c4cnn(C5CC5)c4)C3)nc(-c3ccc(F)cc3F)c2n1C)C1CC1 [Compound I-298]
CC(=O)N(C)c1nc2nc(N3C[C@@H](C)O[C@@H](c4cnn(C5CC5)c4)C3)nc(-c3ccc(Cl)cc3F)c2s1 (single isomer, unassigned) [Compound I-99]
CN(C)c1nc2nc(N3CCC(F)(F)C(c4cnn(C5CC5)c4)C3)nc(-c3ccc(C(F)(F)F)cc3F)c2s1 (racemic) [Compound I-185, 5-(3-(1-cyclopropyl-1H-pyrazol-4-yl)-4,4-difluoropiperidin-1-yl)-7-(2-fluoro-4-(trifluoromethyl)phenyl)-N,N-dimethylthiazolo[4,5-d]pyrimidin-2-amine]
CN(C)c1nc2nc([C@H]3CCO[C@@H](c4cnn(C5CC5)c4)C3)nc(-c3ccc(F)cc3F)c2s1 (single isomer, unassigned) [Compound I-89]
Cc1cc([C@H]2CN(c3nc(-c4ccc(C(F)(F)F)cc4F)c4sc(N(C)C)nc4n3)CCC2(F)F)ccn1 (single isomer, unassigned) [Compound I-202]
CN(C)c1nc2nc(N3CCC(F)(F)[C@H](c4cnn(C5CC5)c4)C3)nc(-c3ccc(C(F)(F)F)cc3F)c2s1 (single isomer, unassigned) [Compound I-200]
CNc1nc2nc(N3C[C@@H](C)O[C@@H](c4cnn(C5CC5)c4)C3)nc(-c3ccc(Cl)cc3F)c2s1 (single isomer, unassigned) [Compound I-94]
C[C@@H]1CN(c2nc(-c3ccc(Cl)cc3F)c3sc(N(C)C)nc3n2)C[C@H](c2cnn(C3CC3)c2)O1 (racemic) [Compound I-22, 7-(4-chloro-2-fluoro-phenyl)-N,N-dimethyl-5-[rac-(2S,6R)-2-(1-cyclopropylpyrazol-4-yl)-6-methyl-morpholin-4-yl]thiazolo[4,5-d]pyrimidin-2-amine]
Cn1c(N2CCC2)nc2nc([C@H]3CCO[C@@H](c4cnn(C5CC5)c4)C3)nc(-c3ccc(F)cc3F)c21 [Compound I-293, 8-(azetidin-1-yl)-2-((2R,4S)-2-(1-cyclopropyl-1H-pyrazol-4-yl)tetrahydro-2H-pyran-4-yl)-6-(2,4-difluorophenyl)-7-methyl-7H-purine]
Cc1cc([C@H]2CN(c3nc(-c4ccc(C(F)(F)F)cc4F)c4sc(N(C)C)nc4n3)C[C@@H](C)O2)ccn1 [Compound I-263, 7-[2-fluoro-4-(trifluoromethyl)phenyl]-N,N-dimethyl-5-[(2R,6S)-2-methyl-6-(2-methyl-4-pyridyl)morpholin-4-yl]thiazolo[4,5-d]pyrimidin-2-amine]
CO[C@H]1CCN(c2nc3nc([C@H]4CCO[C@@H](c5cnn(C6CC6)c5)C4)nc(-c4ccc(C(F)(F)F)cc4F)c3s2)C1 [Compound I-165, 5-[(2R)-2-(1-cyclopropylpyrazol-4-yl)tetrahydropyran-4-yl]-7-[2-fluoro-4-(trifluoromethyl)phenyl]-2-[(3S)-3-methoxypyrrolidin-1-yl]thiazolo[4,5-d]pyrimidine]
CN(C)c1nc2nc([C@H]3CCO[C@@H](c4cnn(C5CC5)c4)C3)nc(-c3ccc(C(F)(F)F)cc3F)c2s1 (single isomer, unassigned) [Compound I-134]
C[C@@H]1CN(c2nc(-c3ccc(Cl)cc3F)c3sc(N(C)CCO)nc3n2)C[C@H](c2cnn(C3CC3)c2)O1 (single isomer, unassigned) [Compound I-104]

pEC50, 5.52 to 6.30:
CN(C)c1nc2nc([C@H]3CCO[C@@H](c4cnn(C5CC5)c4)C3)nc(C3CCCCC3)c2s1 (single isomer, unassigned) [Compound I-174]
CN(C)c1nc2nc(C3CCO[C@@H](c4cnn(C5CC5)c4)C3)nc(Oc3ccccc3)c2s1 (stereo partly drawn) [Compound I-210, 5-[(2R)-2-(1-cyclopropylpyrazol-4-yl)tetrahydropyran-4-yl]-N,N-dimethyl-7-phenoxy-thiazolo[4,5-d]pyrimidin-2-amine]
CCn1/c(=N\C)sc2c(-c3ccc(Cl)cc3F)nc(N3C[C@@H](C)O[C@@H](c4cnn(C5CC5)c4)C3)nc21 [Compound I-154, (E)-7-(4-chloro-2-fluoro-phenyl)-3-ethyl-N-methyl-5-[(2S,6R)-2-(1-cyclopropylpyrazol-4-yl)-6-methyl-morpholin-4-yl]thiazolo[4,5-d]pyrimidin-2-imine]
CCN(C)c1nc2nc(N3C[C@@H](C)O[C@@H](c4cnn(C5CC5)c4)C3)nc(-c3ccc(Cl)cc3F)c2s1 (single isomer, unassigned) [Compound I-119]
CN(C)c1nc2nc([C@@H]3CCO[C@@H](c4cnn(C5CC5)c4)C3)nc(-c3ccc(C(F)(F)F)cc3F)c2s1 (single isomer, unassigned) [Compound I-135]
CN(C)c1nc2nc([C@@H]3CCO[C@@H](c4cnn(C5CC5)c4)C3)nc(C3CCCCC3)c2s1 (single isomer, unassigned) [Compound I-205]

Same assay, conditions: Table D; HEK293 cells expressing human TREM2 and DAP12; pSyk AlphaLisa

pEC50, 4.00 to 5.52:
Cc1cn2c(-c3ccc(Cl)cc3F)cc(N3CCOC(c4cnn(C5CC5)c4)C3)nc2n1 (stereo not shown) [Compound I-26, 4-[5-(4-chloro-2-fluoro-phenyl)-2-methyl-imidazo[1,2-a]pyrimidin-7-yl]-2-(1-cyclopropylpyrazol-4-yl)morpholine]

pEC50, 5.52 to 6.30:
Cc1nc2nc([C@H]3CCO[C@@H](c4cnn(C5CC5)c4)C3)nc(-c3ccc(F)cc3F)c2o1 [Compound 5, 5-((2R,4S)-2-(1-cyclopropyl-1H-pyrazol-4-yl)tetrahydro-2H-pyran-4-yl)-7-(2,4-difluorophenyl)-2-methyloxazolo[4,5-d]pyrimidine]
